Assay results reported in BindingDB's records for PubMed 11504829 (University of Melbourne, 2001).

Tests used:
[1] = biological target: T1, Muscarinic acetylcholine receptor M1 (Homo sapiens, UniProt P11229)
T1 sequence (P11229 whole entry): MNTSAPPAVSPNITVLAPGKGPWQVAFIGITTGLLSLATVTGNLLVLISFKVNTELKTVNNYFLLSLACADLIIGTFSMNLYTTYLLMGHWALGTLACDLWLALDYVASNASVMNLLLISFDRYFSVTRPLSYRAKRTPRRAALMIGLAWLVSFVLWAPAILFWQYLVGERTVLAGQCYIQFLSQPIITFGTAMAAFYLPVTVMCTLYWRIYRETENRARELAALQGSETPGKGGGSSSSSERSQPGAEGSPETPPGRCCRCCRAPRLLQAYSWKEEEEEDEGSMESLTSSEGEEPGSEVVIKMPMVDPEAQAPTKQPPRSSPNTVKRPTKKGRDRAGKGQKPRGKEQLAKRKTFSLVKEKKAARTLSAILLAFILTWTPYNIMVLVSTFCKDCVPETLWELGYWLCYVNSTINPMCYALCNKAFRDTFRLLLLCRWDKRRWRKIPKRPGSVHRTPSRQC

[2] = biological target: T2, Muscarinic acetylcholine receptor M5 (Homo sapiens, UniProt P08912)
T2 sequence (P08912 whole entry): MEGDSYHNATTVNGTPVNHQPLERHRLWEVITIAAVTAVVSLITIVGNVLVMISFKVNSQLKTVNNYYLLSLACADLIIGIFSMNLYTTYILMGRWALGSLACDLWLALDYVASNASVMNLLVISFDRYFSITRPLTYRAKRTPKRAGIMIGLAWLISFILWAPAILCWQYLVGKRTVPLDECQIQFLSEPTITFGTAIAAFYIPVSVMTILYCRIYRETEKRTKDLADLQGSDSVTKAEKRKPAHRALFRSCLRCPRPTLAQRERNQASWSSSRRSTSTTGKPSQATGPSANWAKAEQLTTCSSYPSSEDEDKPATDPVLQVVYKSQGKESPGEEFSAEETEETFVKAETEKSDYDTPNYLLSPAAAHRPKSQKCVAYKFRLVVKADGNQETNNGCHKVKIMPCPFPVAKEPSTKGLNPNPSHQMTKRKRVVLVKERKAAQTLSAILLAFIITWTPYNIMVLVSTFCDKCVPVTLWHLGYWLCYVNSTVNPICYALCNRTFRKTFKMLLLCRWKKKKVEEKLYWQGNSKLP

[3] = biological target: T3, Muscarinic acetylcholine receptor M4 (Homo sapiens, UniProt P08173)
T3 sequence (P08173 whole entry): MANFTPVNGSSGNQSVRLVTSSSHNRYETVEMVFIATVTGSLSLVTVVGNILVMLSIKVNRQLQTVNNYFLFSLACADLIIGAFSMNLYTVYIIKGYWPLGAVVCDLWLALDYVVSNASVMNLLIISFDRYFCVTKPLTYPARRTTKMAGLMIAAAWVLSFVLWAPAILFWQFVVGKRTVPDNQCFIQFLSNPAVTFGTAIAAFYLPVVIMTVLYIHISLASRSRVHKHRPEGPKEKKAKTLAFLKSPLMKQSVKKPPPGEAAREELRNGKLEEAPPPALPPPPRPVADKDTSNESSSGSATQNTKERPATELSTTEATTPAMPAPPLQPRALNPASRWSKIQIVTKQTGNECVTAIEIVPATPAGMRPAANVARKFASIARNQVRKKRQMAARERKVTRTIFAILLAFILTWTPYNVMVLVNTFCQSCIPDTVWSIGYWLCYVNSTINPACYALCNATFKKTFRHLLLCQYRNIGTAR

[4] = biological target: T4, Muscarinic acetylcholine receptor M2 (Homo sapiens, UniProt P08172)
T4 sequence (P08172 whole entry): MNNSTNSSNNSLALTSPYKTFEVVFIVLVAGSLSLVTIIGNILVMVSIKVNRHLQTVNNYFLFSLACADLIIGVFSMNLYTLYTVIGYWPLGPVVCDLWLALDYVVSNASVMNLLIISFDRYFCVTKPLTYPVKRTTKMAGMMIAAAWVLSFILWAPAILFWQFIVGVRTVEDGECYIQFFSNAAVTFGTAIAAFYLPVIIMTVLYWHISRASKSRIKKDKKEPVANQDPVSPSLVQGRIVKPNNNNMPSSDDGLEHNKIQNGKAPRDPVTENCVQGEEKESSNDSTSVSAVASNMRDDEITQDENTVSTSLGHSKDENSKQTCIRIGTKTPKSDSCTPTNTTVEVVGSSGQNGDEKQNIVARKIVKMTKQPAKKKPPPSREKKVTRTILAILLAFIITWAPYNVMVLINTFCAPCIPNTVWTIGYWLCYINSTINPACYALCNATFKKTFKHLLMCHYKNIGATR

[5] = biological target: Muscarinic acetylcholine receptor M3 (Homo sapiens, UniProt P20309)
Sequence of Muscarinic acetylcholine receptor M3 (P20309 whole entry): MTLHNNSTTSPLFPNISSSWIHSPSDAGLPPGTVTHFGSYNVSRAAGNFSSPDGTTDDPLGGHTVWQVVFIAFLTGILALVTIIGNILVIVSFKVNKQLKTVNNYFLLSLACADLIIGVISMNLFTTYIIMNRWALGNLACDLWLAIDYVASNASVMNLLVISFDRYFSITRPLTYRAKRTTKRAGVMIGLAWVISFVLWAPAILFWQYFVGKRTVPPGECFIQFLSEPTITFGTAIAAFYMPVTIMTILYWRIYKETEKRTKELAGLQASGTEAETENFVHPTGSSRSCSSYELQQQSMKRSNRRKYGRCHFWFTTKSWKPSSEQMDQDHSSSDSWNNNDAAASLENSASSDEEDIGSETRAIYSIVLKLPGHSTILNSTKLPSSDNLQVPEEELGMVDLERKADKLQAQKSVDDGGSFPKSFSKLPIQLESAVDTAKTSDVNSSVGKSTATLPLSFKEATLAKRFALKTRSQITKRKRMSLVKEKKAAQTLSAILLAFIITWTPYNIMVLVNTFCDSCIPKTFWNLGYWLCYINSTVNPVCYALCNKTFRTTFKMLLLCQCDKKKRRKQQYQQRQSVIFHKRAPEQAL

[6] = biological target: T5, Muscarinic acetylcholine receptor M2 (Rattus norvegicus, UniProt P10980)
T5 sequence (P10980 whole entry): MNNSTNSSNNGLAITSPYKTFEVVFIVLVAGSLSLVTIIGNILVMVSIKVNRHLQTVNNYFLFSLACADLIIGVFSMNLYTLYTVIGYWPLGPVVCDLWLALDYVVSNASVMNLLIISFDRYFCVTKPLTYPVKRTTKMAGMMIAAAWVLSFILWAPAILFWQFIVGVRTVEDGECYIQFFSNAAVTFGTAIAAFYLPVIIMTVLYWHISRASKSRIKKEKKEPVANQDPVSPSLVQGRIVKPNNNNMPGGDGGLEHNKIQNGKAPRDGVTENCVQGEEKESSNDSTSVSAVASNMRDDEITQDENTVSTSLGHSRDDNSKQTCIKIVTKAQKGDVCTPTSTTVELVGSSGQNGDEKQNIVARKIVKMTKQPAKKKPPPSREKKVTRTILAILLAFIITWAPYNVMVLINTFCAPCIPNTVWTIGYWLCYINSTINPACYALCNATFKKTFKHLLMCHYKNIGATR

SMILES | Ki [1] [nM] | Ki [2] [nM] | Ki [3] [nM] | Ki [4] [nM] | Ki [5] [nM] | Ki [6] [nM]
C(#Cc1cccc(C#CCOc2nsnc2C2CN3CCC2CC3)c1)COc1nsnc1C1CN2CCC1CC2 (stereo unspecified) [NNC 11-1607] | 2.4 | 6.03 | 8.13 | 5.75 | 8.13 | 9.55
C(#Cc1ccc(C#CCOc2nsnc2C2CN3CCC2CC3)cc1)COc1nsnc1C1CN2CCC1CC2 (stereo unspecified) [NNC 11-1585] | 0.129 | 5.25 | 2.57 | 0.079 | 4.68 | 
C(#Cc1ccccc1)COc1nsnc1C1CN2CCC1CC2 (stereo unspecified) | 41.7 | 14.8 | 49 | 58.9 | 77.6 | 
